Strand notation (5' to 3'): a small letter for the sugar, then the base; units joined by * are phosphorothioate-linked, units joined directly phosphodiester-linked; [ ] holds rarer units or linkages, { } end groups; capitals alone tell only the bases. HELM strings list units from the 5' end as sugar, base in round brackets, then linkage (d deoxyribose, r ribose, m 2'-O-methyl, p phosphodiester). [sp] = phosphorothioate linkage; d = 2'-deoxy (DNA); m = 2'-O-methyl

Data set [1] has as its target CDKN2B-AS1. The experiment in a line: HEK293-TLR7, 100 nM ASO, then resiquimod.
Data set [2] deals with CDKN2B-AS1. The experiment in a line: HEK293-TLR8, 100 nM ASO, then resiquimod.
Data set [3] has as its target EGFR. Briefly: HEK293-TLR7, 100 nM ASO, then resiquimod.
The target in data set [4] is EGFR. The experiment in a line: HEK293-TLR8, 100 nM ASO, then resiquimod.

Turning to “RNA1{m(G)[sp].m(U)[sp].m(C)[sp].m(U)[sp].m(C)[sp].d(T)[sp].d(A)[sp].d(C)[sp].d(T)[sp].d(G)[sp].d(T)[sp].d(T)[sp].d(A)[sp].d(C)[sp].d(C)[sp].m(U)[sp].m(C)[sp].m(U)[sp].m(G)[sp].m(A)}$$$$”, the TLR7 signal (NF-kB luciferase) (% of resiquimod alone) with CDKN2B-AS1 [1] amounted to 19.2. Also, the TLR8 potentiation (NF-kB luciferase) (fold of resiquimod alone) in the data set with CDKN2B-AS1 [2] was found to be 2.41.
“RNA1{m(G)[sp].m(U)[sp].m(G)[sp].m(G)[sp].m(U)[sp].d(T)[sp].d(A)[sp].d(A)[sp].d(G)[sp].d(T)[sp].d(A)[sp].d(C)[sp].d(A)[sp].d(T)[sp].d(G)[sp].m(A)[sp].m(G)[sp].m(C)[sp].m(U)[sp].m(C)}$$$$” displayed a TLR7 signal (NF-kB luciferase) (% of resiquimod alone) with CDKN2B-AS1 [1] of 21.6. In addition, the TLR8 potentiation (NF-kB luciferase) (fold of resiquimod alone) with CDKN2B-AS1 [2] worked out at 0.59.
In turn, “RNA1{m(G)[sp].m(U)[sp].m(G)[sp].m(U)[sp].m(C)[sp].d(C)[sp].d(T)[sp].d(T)[sp].d(C)[sp].d(A)[sp].d(T)[sp].d(G)[sp].d(C)[sp].d(T)[sp].d(T)[sp].m(U)[sp].m(G)[sp].m(G)[sp].m(A)[sp].m(U)}$$$$” yielded a TLR7 signal (NF-kB luciferase) (% of resiquimod alone) with CDKN2B-AS1 [1] of 18.1. Further, the TLR8 potentiation (NF-kB luciferase) (fold of resiquimod alone) with CDKN2B-AS1 [2] worked out at 1.33.
For the substance “RNA1{m(G)[sp].m(U)[sp].m(G)[sp].m(U)[sp].m(U)[sp].d(T)[sp].d(T)[sp].d(T)[sp].d(A)[sp].d(A)[sp].d(T)[sp].d(T)[sp].d(T)[sp].d(T)[sp].d(G)[sp].m(U)[sp].m(A)[sp].m(G)[sp].m(A)[sp].m(G)}$$$$”, in the data set with CDKN2B-AS1 [1], the TLR7 signal (NF-kB luciferase) (% of resiquimod alone) came out at 23.6. The TLR8 potentiation (NF-kB luciferase) (fold of resiquimod alone) with CDKN2B-AS1 [2] turned out to be 1.31.
In the same order, the values of “RNA1{m(U)[sp].m(A)[sp].m(A)[sp].m(A)[sp].m(A)[sp].d(T)[sp].d(A)[sp].d(A)[sp].d(G)[sp].d(G)[sp].d(G)[sp].d(G)[sp].d(A)[sp].d(A)[sp].d(T)[sp].m(A)[sp].m(G)[sp].m(G)[sp].m(G)[sp].m(G)}$$$$” are 41 and 1.28.
In the same order, the values of “RNA1{m(U)[sp].m(A)[sp].m(U)[sp].m(U)[sp].m(U)[sp].d(C)[sp].d(C)[sp].d(A)[sp].d(C)[sp].d(A)[sp].d(T)[sp].d(G)[sp].d(C)[sp].d(C)[sp].d(C)[sp].m(A)[sp].m(G)[sp].m(U)[sp].m(G)[sp].m(U)}$$$$” are 30.5 and 2.77.
In the data set with CDKN2B-AS1 [1], “RNA1{m(U)[sp].m(C)[sp].m(U)[sp].m(C)[sp].m(C)[sp].d(A)[sp].d(T)[sp].d(G)[sp].d(T)[sp].d(C)[sp].d(C)[sp].d(C)[sp].d(A)[sp].d(G)[sp].d(G)[sp].m(C)[sp].m(C)[sp].m(U)[sp].m(C)[sp].m(C)}$$$$” came in with a TLR7 signal (NF-kB luciferase) (% of resiquimod alone) of 43.5. The TLR8 potentiation (NF-kB luciferase) (fold of resiquimod alone) with CDKN2B-AS1 [2] was 3.41.
Consider “RNA1{m(U)[sp].m(G)[sp].m(U)[sp].m(G)[sp].m(A)[sp].d(A)[sp].d(A)[sp].d(A)[sp].d(G)[sp].d(A)[sp].d(T)[sp].d(T)[sp].d(A)[sp].d(T)[sp].d(C)[sp].m(U)[sp].m(U)[sp].m(C)[sp].m(U)[sp].m(U)}$$$$”, for which the TLR7 signal (NF-kB luciferase) (% of resiquimod alone) in the data set with CDKN2B-AS1 [1] came out at 34.5. Further, the TLR8 potentiation (NF-kB luciferase) (fold of resiquimod alone) in the data set with CDKN2B-AS1 [2] worked out at 2.79.
“RNA1{m(U)[sp].m(U)[sp].m(A)[sp].m(A)[sp].m(A)[sp].d(T)[sp].d(A)[sp].d(A)[sp].d(T)[sp].d(C)[sp].d(T)[sp].d(A)[sp].d(G)[sp].d(T)[sp].d(T)[sp].m(U)[sp].m(G)[sp].m(A)[sp].m(A)[sp].m(G)}$$$$”: in the data set with CDKN2B-AS1 [1], the TLR7 signal (NF-kB luciferase) (% of resiquimod alone) is 25.7. Also, the TLR8 potentiation (NF-kB luciferase) (fold of resiquimod alone) with CDKN2B-AS1 [2] is 3.96.
In the same order, the values of “RNA1{m(U)[sp].m(U)[sp].m(G)[sp].m(U)[sp].m(G)[sp].d(A)[sp].d(A)[sp].d(A)[sp].d(A)[sp].d(G)[sp].d(A)[sp].d(T)[sp].d(T)[sp].d(A)[sp].d(T)[sp].m(C)[sp].m(U)[sp].m(U)[sp].m(C)[sp].m(U)}$$$$” are 35 and 1.05.
In the data set with EGFR [3], “mA*mA*mA*mA*mA*dT*dT*dA*dC*dT*dT*dT*dA*dA*dA*mA*mG*mC*mA*mA” returned a TLR7 signal (NF-kB luciferase) (% of resiquimod alone) of 71.1. Besides, the TLR8 potentiation (NF-kB luciferase) (fold of resiquimod alone) with EGFR [4] turned out to be 1.32.
“mA*mA*mA*mA*mG*dG*dA*dG*dA*dA*dA*dA*dC*dT*dA*mU*mC*mU*mU*mC” showed a TLR7 signal (NF-kB luciferase) (% of resiquimod alone) in the data set with EGFR [3] of 47.6. The TLR8 potentiation (NF-kB luciferase) (fold of resiquimod alone) in the data set with EGFR [4] is 1.65.
In the data set with EGFR [3], “mA*mA*mG*mG*mC*dC*dC*dT*dT*dC*dG*dC*dA*dC*dT*mU*mC*mU*mU*mA” showed a TLR7 signal (NF-kB luciferase) (% of resiquimod alone) of 31.2. The TLR8 potentiation (NF-kB luciferase) (fold of resiquimod alone) in the data set with EGFR [4] turned out to be 1.49.
Taken in the same sequence, the figures for “mA*mA*mU*mU*mA*dC*dT*dT*dT*dA*dA*dA*dA*dG*dC*mA*mA*mA*mA*mG” were 77.1 and 2.07.

The record behind these values is the OligoGym collection.
